Laboratory results: US20080175794A1, “Substituted Pyridazinyl- and Pyrimidinyl-Quinolin-4-Ylamine Analogues” (NEUROGEN CORPORATION, priority 2005, published 2008)

Each compound was assayed against T1, human capsaicin receptor (Homo sapiens, UniProt Q8NER1) (assay: Calcium mobilization assay, determination of antagonist activity (Example 6)). Conditions: Table III; assay provided in Example 6; cells expressing human capsaicin receptor, capsaicin at EC50.
T1 construct: expressed in transfected cells
Assay type: cell-based
Protocol: A cDNA encoding full length human capsaicin receptor (SEQ ID NO:1, 2 or 3 of U.S. Pat. No. 6,482,611) is subcloned in the plasmid pBK-CMV (Stratagene, La Jolla, Calif.) for recombinant expression in mammalian cells.
Human embryonic kidney (HEK293) cells are transfected with the pBK-CMV expression construct encoding the full length human capsaicin receptor using standard methods. The transfected cells are selected over two weeks in media containing G418 (400 μg/ml) to obtain a pool of stably transfected cells. Independent clones are isolated from this pool by limiting dilution to obtain clonal stable cell lines for use in subsequent experiments.
Cells transfected with expression plasmids (as described in Example 4) and thereby expressing human capsaicin receptor are seeded and grown to 70-90% confluency in FALCON black-walled, clear-bottomed 96-well plates (#3904, BECTON-DICKINSON, Franklin Lakes, N.J.). The culture medium is emptied from the 96 well plates and FLUO-3 AM calcium sensitive dye (Molecular Probes, Eugene, Oreg.) is added to each well (dye solution: 1 mg FLUO-3 AM, 440 μL DMSO and 440 μl 20% pluronic acid in DMSO, diluted 1:250 in Krebs-Ringer HEPES (KRH) buffer (25 mM HEPES, […], 0.96 mM NaH2PO4, 1 mM MgSO4, 2 mM CaCl2, 5 mM glucose, 1 mM probenecid, pH 7.4), 50 μl diluted solution per well). Plates are covered with aluminum foil and incubated at 37° C. for 1-2 hours in an environment containing 5% CO2. After the incubation, the dye is emptied from the plates, and the cells are washed once with KRH buffer, and resuspended in KRH buffer.
To measure the ability of a test compound to agonize or antagonize a calcium mobilization response in cells expressing capsaicin receptors to capsaicin or other vanilloid agonist, the EC50 of the agonist capsaicin is first determined. An additional 20 μl of KRH buffer and 1 μl DMSO is added to each well of cells, prepared as described above. 100 μl capsaicin in KRH buffer is automatically transferred by the FLIPR instrument to each well. Capsaicin-induced calcium mobilization is monitored using either FLUOROSKAN ASCENT (Labsystems; Franklin, Mass.) or FLIPR (fluorometric imaging plate reader system; Molecular Devices, Sunnyvale, Calif.) instruments. Data obtained between 30 and 60 seconds after agonist application are used to generate an 8-point concentration response curve, with final capsaicin concentrations of 1 nM to 3 μM. KALEIDAGRAPH software (Synergy Software, Reading, Pa.) is used to fit the data to the equation: […]
Test compounds are dissolved in DMSO, diluted in 20 μl KRH buffer so that the final concentration of test compounds in the assay well is between […] and 5 μM, and added to cells prepared as described above. The 96 well plates containing prepared cells and test compounds are incubated in the dark at room temperature for 0.5 to 6 hours. It is important that the incubation not continue beyond 6 hours. Just prior to determining the fluorescence response, 100 μl capsaicin in KRH buffer at twice the EC50 concentration determined as described above is automatically added by the FLIPR instrument to each well of the 96 well plate for a final sample volume of 200 μl and a final capsaicin concentration equal to the EC50. The final concentration of test compounds in the assay wells is between 1 μM and 5 μM. […] The concentration of antagonist required to provide a 50% decrease, relative to the response observed in the presence of capsaicin and without antagonist, is the IC50 for the antagonist, and is preferably below 1 micromolar, 100 nanomolar, 10 nanomolar or 1 nanomolar.

T1 sequence (Q8NER1 whole entry): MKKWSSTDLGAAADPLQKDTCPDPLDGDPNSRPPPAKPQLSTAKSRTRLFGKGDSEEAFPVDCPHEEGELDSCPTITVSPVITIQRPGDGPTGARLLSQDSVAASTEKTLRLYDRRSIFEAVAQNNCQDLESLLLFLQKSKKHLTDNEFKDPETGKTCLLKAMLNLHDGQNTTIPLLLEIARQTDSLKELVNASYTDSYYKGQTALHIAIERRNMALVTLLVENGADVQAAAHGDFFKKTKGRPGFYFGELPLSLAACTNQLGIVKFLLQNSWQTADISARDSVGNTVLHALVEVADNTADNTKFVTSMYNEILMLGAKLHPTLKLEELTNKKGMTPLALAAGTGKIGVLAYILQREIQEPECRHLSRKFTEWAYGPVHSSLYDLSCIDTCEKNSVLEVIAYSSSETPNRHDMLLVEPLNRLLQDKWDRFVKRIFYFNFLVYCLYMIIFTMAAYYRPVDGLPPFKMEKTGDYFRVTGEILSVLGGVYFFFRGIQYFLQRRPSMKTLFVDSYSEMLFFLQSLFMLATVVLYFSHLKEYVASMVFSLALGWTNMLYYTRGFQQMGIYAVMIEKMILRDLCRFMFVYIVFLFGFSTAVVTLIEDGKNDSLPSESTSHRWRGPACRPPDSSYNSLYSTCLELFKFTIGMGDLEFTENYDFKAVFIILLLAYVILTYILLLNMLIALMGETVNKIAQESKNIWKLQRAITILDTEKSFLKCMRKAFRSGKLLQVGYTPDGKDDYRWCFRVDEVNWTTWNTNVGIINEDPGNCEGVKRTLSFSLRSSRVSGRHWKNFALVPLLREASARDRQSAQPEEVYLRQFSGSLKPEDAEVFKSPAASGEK

IC50, < 1000 nM:
FC(F)(F)c1cnc(Nc2ccnc3nc(-c4nnccc4C(F)(F)F)cnc23)cn1 [Compound 46, N-[5-(trifluoromethyl)-2-pyrazinyl]-3-[4-(trifluoromethyl)-3-pyridazinyl]pyrido[2,3-b]pyrazin-8-amine]
CC(C)(CO)Nc1cc(C(F)(F)F)c(-c2cnc3c(Nc4ccc(C(F)(F)F)cn4)ccnc3n2)nn1 [Compound 171, 2-methyl-2-{[5-(trifluoromethyl)-6-(8-{[5-(trifluoromethyl)pyridin-2-yl]amino}pyrido[2,3-b]pyrazin-3-yl)pyridazin-3-yl]amino}propan-1-ol]
OC1CCCN(c2cc(C(F)(F)F)c(-c3cnc4c(Nc5ccc(C(F)(F)F)cn5)ccnc4n3)nn2)C1 (stereo not drawn) [Compound 195, 1-[5-(trifluoromethyl)-6-(8-{[5-(trifluoromethyl)pyridin-2-yl]amino}pyrido[2,3-b]pyrazin-3-yl)pyridazin-3-yl]piperidin-3-ol]
CCOc1nc(Nc2ccnc3nc(-c4nnccc4C(F)(F)F)cnc23)ccc1C(F)(F)F [Compound 44, N-[6-ethoxy-5-(trifluoromethyl)-2-pyridinyl]-3-[4-(trifluoromethyl)-3-pyridazinyl]pyrido[2,3-b]pyrazin-8-amine]
CN(C)C1CCCN(c2cc(C(F)(F)F)c(-c3cnc4c(Nc5ccc(C(F)(F)F)cn5)ccnc4n3)nn2)C1 (stereo not drawn) [Compound 132, 3-{6-[3-(dimethylamino)piperidin-1-yl]-4-(trifluoromethyl)pyridazin-3-yl}-N-[5-(trifluoromethyl)pyridin-2-yl]pyrido[2,3-b]pyrazin-8-amine]
CN(C)CCCNc1cc(C(F)(F)F)c(-c2cnc3c(Nc4ccc(C(F)(F)F)cn4)ccnc3n2)nn1 [Compound 139, N,N-dimethyl-N′-[5-(trifluoromethyl)-6-(8-{[5-(trifluoromethyl)pyridin-2-yl]amino}pyrido[2,3-b]pyrazin-3-yl)pyridazin-3-yl]propane-1,3-diamine]
FC(F)(F)c1ccc(Nc2ccnc3nc(-c4nnc(NC5CCCC5)cc4C(F)(F)F)cnc23)nc1 [Compound 109, 3-[6-(cyclopentylamino)-4-(trifluoromethyl)pyridazin-3-yl]-N-[5-(trifluoromethyl)pyridin-2-yl]pyrido[2,3-b]pyrazin-8-amine]
FC(F)(F)c1ccc(Nc2ccnc3nc(-c4nnc(NC5CCCCC5)cc4C(F)(F)F)cnc23)nc1 [Compound 110, 3-[6-(cyclohexylamino)-4-(trifluoromethyl)pyridazin-3-yl]-N-[5-(trifluoromethyl)pyridin-2-yl]pyrido[2,3-b]pyrazin-8-amine]
CCCCNc1cc(C(F)(F)F)c(-c2cnc3c(Nc4ccc(C(F)(F)F)cn4)ccnc3n2)nn1 [Compound 104, 3-[6-(butylamino)-4-(trifluoromethyl)pyridazin-3-yl]-N-[5-(trifluoromethyl)pyridin-2-yl]pyrido[2,3-b]pyrazin-8-amine]
CCN(CC)CCNc1cc(C(F)(F)F)c(-c2cnc3c(Nc4ccc(C(F)(F)F)cn4)ccnc3n2)nn1 [Compound 70, N,N-diethyl-N′-[5-(trifluoromethyl)-6-(8-{[5-(trifluoromethyl)pyridin-2-yl]amino}pyrido[2,3-b]pyrazin-3-yl)pyridazin-3-yl]ethane-1,2-diamine]
CC1(C)CCN1c1cc(C(F)(F)F)c(-c2cnc3c(Nc4ccc(C(F)(F)F)cn4)ccnc3n2)nn1 [Compound 131, 3-[6-(2,2-dimethylazetidin-1-yl)-4-(trifluoromethyl)pyridazin-3-yl]-N-[5-(trifluoromethyl)pyridin-2-yl]pyrido[2,3-b]pyrazin-8-amine]
CN(C)C(=O)CN(C)c1cc(C(F)(F)F)c(-c2cnc3c(Nc4ccc(C(F)(F)F)cn4)ccnc3n2)nn1 [Compound 59, N,N,N2-trimethyl-N2-[5-(trifluoromethyl)-6-(8-{[5-(trifluoromethyl)pyridin-2-yl]amino}pyrido[2,3-b]pyrazin-3-yl)pyridazin-3-yl]glycinamide]
CCCC(CO)Nc1cc(C(F)(F)F)c(-c2cnc3c(Nc4ccc(C(F)(F)F)cn4)ccnc3n2)nn1 (stereo not drawn) [Compound 119, 2-{[5-(trifluoromethyl)-6-(8-{[5-(trifluoromethyl)pyridin-2-yl]amino}pyrido[2,3-b]pyrazin-3-yl)pyridazin-3-yl]amino}pentan-1-ol]
CN(CCCO)c1cc(C(F)(F)F)c(-c2cnc3c(Nc4ccc(C(F)(F)F)cn4)ccnc3n2)nn1 [Compound 137, 3-{methyl[5-(trifluoromethyl)-6-(8-{[5-(trifluoromethyl)pyridin-2-yl]amino}pyrido[2,3-b]pyrazin-3-yl)pyridazin-3-yl]amino}propan-1-ol]
CC(C)C(C)Nc1cc(C(F)(F)F)c(-c2cnc3c(Nc4ccc(C(F)(F)F)cn4)ccnc3n2)nn1 (stereo not drawn) [Compound 111, 3-{6-[(1,2-dimethylpropyl)amino]-4-(trifluoromethyl)pyridazin-3-yl}-N-[5-(trifluoromethyl)pyridin-2-yl]pyrido[2,3-b]pyrazin-8-amine]
COCC(C)Nc1cc(C(F)(F)F)c(-c2cnc3c(Nc4ccc(C(F)(F)F)cn4)ccnc3n2)nn1 (stereo not drawn) [Compound 165, 3-{6-[(2-methoxy-1-methylethyl)amino]-4-(trifluoromethyl)pyridazin-3-yl}-N-[5-(trifluoromethyl)pyridin-2-yl]pyrido[2,3-b]pyrazin-8-amine]
CCOc1cc(C(F)(F)F)c(-c2cnc3c(Nc4ccc(C(F)(F)F)cn4)ccnc3n2)nn1 [Compound 50, 3-[6-ethoxy-4-(trifluoromethyl)pyridazin-3-yl]-N-[5-(trifluoromethyl)pyridin-2-yl]pyrido[2,3-b]pyrazin-8-amine]
CC(CO)Nc1cc(C(F)(F)F)c(-c2cnc3c(Nc4ccc(C(F)(F)F)cn4)ccnc3n2)nn1 (stereo not drawn) [Compound 117, 2-{[5-(trifluoromethyl)-6-(8-{[5-(trifluoromethyl)pyridin-2-yl]amino}pyrido[2,3-b]pyrazin-3-yl)pyridazin-3-yl]amino}propan-1-ol]
CC(CN(C)C)Nc1cc(C(F)(F)F)c(-c2cnc3c(Nc4ccc(C(F)(F)F)cn4)ccnc3n2)nn1 (stereo not drawn) [Compound 82, N1,N1-dimethyl-N2-[5-(trifluoromethyl)-6-(8-{[5-(trifluoromethyl)pyridin-2-yl]amino}pyrido[2,3-b]pyrazin-3-yl)pyridazin-3-yl]propane-1,2-diamine]
CCC(C)Nc1cc(C(F)(F)F)c(-c2cnc3c(Nc4ccc(C(F)(F)F)cn4)ccnc3n2)nn1 (stereo not drawn) [Compound 108, 3-[6-(sec-butylamino)-4-(trifluoromethyl)pyridazin-3-yl]-N-[5-(trifluoromethyl)pyridin-2-yl]pyrido[2,3-b]pyrazin-8-amine]
CN1CCN(CCCNc2cc(C(F)(F)F)c(-c3cnc4c(Nc5ccc(C(F)(F)F)cn5)ccnc4n3)nn2)CC1 [Compound 81, 3-[6-{[3-(4-methylpiperazin-1-yl)propyl]amino}-4-(trifluoromethyl)pyridazin-3-yl]-N-[5-(trifluoromethyl)pyridin-2-yl]pyrido[2,3-b]pyrazin-8-amine]
